Values quoted from earlier work in patent US20260210975A1, “DIAGNOSIS AND TREATMENT OF LONG-COVID” (priority 2022, published 2026).
Where two headings read alike, the source gives them in different places.

Biological target: KCNH2 (Homo sapiens, UniProt Q12809)
Sequence (Q12809 whole entry): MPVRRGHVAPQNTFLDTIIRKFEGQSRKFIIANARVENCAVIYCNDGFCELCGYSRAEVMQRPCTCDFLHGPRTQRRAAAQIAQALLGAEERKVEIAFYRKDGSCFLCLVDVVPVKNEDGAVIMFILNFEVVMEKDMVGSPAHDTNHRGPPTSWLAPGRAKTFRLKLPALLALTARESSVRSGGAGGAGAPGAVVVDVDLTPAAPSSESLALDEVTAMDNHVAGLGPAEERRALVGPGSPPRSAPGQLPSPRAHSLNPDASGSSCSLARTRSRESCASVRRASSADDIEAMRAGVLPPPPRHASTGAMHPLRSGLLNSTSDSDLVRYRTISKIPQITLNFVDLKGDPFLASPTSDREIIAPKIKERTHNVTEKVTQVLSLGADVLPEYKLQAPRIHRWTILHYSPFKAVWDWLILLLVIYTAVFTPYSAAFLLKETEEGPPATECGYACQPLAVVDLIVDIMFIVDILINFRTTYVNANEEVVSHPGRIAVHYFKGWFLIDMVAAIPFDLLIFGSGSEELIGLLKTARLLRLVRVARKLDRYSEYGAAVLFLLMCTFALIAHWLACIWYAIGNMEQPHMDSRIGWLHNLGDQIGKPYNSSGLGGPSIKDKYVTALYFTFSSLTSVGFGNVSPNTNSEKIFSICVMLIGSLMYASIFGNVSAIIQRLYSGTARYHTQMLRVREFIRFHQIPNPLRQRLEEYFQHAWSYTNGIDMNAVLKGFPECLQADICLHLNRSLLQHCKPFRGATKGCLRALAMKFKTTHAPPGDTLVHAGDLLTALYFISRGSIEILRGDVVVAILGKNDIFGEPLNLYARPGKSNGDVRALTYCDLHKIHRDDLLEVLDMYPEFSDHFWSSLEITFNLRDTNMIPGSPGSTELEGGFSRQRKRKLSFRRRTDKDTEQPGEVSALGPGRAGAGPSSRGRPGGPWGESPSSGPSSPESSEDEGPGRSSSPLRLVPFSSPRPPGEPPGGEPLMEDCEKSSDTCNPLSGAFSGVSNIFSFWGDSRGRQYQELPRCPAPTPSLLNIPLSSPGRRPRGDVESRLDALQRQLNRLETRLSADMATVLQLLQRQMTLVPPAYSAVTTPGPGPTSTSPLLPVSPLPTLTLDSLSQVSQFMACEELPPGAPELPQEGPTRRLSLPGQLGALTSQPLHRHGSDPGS

Compound | IC50 | also measured
Cc1cc2c(s1)Nc1ccccc1N=C2N1CCN(C)CC1 [olanzapine] | ~6.01 µM | –
COc1ccc(CN(CCN(C)C)c2ccccn2)cc1 [pyrilamine] | ~6 µM | –
C[C@@H]1CN(c2c(F)c(N)c3c(=O)c(C(=O)O)cn(C4CC4)c3c2F)C[C@H](C)N1 [sparfloxacin] | ~18 µM | –
arsenic trioxide | – | IKr (listed as weak inhibitor of KCNH2, literature value): approximately 300 μmol/l
prenylamine | – | IC50 (read-out: IC50 (half maximal inhibitory concentration), KCNH2 inhibitors, literature values): ~0.59 µM
